Reference: patent US7569605B2, “Methods of treating central nervous system disorders with a low dose combination of escitalopram and bupropion” (Forest Laboratories Holdings Limited, priority 2005, dated 2009)
“And” between values parts separate entries of the source, which are not always exact repeats. Identical values can stand only once. Marks after values point to notes of the source that are not given here.

Tests used:
[1] = test system: rat dorsal raphe nucleus (DRN) 5-HT neurons; assay: effects on rat dorsal raphe nucleus serotonin neurons (extracellular unitary recordings of firing); format: in vivo; conditions: anesthetized rats; two days treatment; escitalopram 10 mg/kg s.c. minipump, bupropion 30 mg/kg s.c. once daily
Description: Glass electrodes were lowered into the DRN 5-HT neurons were identified by their firing pattern and spike duration. […] NS). […] The experiments were carried out in male Sprague Dawley rats (Charles River, St. Constant, Québec, Canada) weighing between 300 to 325 g being kept under standard laboratory conditions (12:12 light-dark cycle with access to food and water ad libitum). Rats were anaesthetized with chloral hydrate (400 mg/kg, i.p.) and mounted in a stereotaxic apparatus (David Kopf Instruments, Tujunga, Calif., USA). […] Body temperature was maintained at 37° C. throughout the experiments utilizing a thermistor-controlled heating pad (Seabrook Medical Instruments, Inc., […], Canada). Prior to electrophysiological recording, rats were inserted with a catheter in a lateral tail vein for systemic injection of drugs. Rats received escitalopram oxalate administered through an osmotic minipump implanted subcutaneously, under halothane anaesthesia, which delivered 10 mg/kg/day. The recordings were carried out with the minipump in the animals. Bupropion hydrochloride was injected subcutaneously once a day at a dose of 30 mg/kg for 2 days with the last dose administered immediately prior to the electrophysiological experiments. […] Their impedance range was between 2 and 4 MΩ. […] Serotonin neurons were recorded with micropipettes lowered at +1.0 mm interaural on midline. […]

[2] = test system: patients with major depressive disorder (MDD); assay: double-blind fixed dose comparison in major depressive disorder: efficacy (MADRS, HAMD, CGI, HAMA, QOL); format: in vivo, human; set-up: key to QOL: LS mean change from baseline to endpoint (LOCF): aggregated 5-point item scores; higher = greater enjoyment/satisfaction; HAMD17: LS mean change from baseline to endpoint (LOCF): scale not given here; conditions: escitalopram 4 mg, bupropion XL 150 mg, 8 weeks; for CGI % response: CGI-I response = 1 or 2; for HAMD17 % remission: HAMD17 remission <=7; for HAMD24 % response: HAMD24 response >=50% improvement; for MADRS % remission: MADRS remission <=12; for MADRS % response: MADRS response >=50% improvement; for CGI-I: LS mean (LOCF) / CGI-S: LS mean change from baseline to endpoint (LOCF) / HAMA: LS mean change from baseline to endpoint (LOCF) / HAMD17: LS mean change from baseline to endpoint (LOCF) / HAMD24 2° parameter, validated: LS mean change from baseline to endpoint (LOCF) / HAMD cognit disturb: LS mean change from baseline to endpoint (LOCF) / HAMD psychomotor: LS mean change from baseline to endpoint (LOCF) / MADRS 1° parameter, validated: LS mean change from baseline to endpoint (LOCF) / QOL: LS mean change from baseline to endpoint (LOCF): vs placebo
Description: This clinical study is conducted as a double-blind, randomized, fixed-dose, multicenter, parallel-group study in outpatients as shown in the Figure below: […] Approximately 135 patients are randomized to each of four treatment groups (placebo, escitalopram oxalate 4 mg, bupropion hydrochloride 150 mg, or escitalopram oxalate 4 mg/bupropion hydrochloride 150 mg), for a total of […]. A randomized, double-blind, fixed-dose, multicenter, parallel-group study is conducted in outpatients with MDD. […] Assignment to a treatment group is according to a computer-generated randomization schedule. […] The following primary efficacy assessments are performed at patient visits: […] The following secondary efficacy assessments are performed at patient visits: […] The following additional efficacy assessments are performed at patient visits: […] This scale rates the severity of the patient's current state of mental illness based on the investigator's clinical opinion with regard to a patient population with MDD. The patient is rated on a scale of 1 to 7 with 1 being normal and 7 being a patient who was among the most extremely ill. […] Based on the investigator's clinical opinion, this scale rates the total improvement or worsening in the patient's mental illness from his/her baseline assessment, regardless of whether or not the investigator considered it due to drug treatment. The patient is rated on a scale from 1 to 7 with 1 being very much improved and 7 being very much worse. […] Each item is scored on a 5 point scale with 0 reflecting no symptoms and 4 reflecting symptoms of maximum severity. […] Five-point item scores are aggregated, with higher scores indicative of greater enjoyment or satisfaction in each domain. Dosing: For the single-blind lead-in period, patients are supplied with placebo capsules. For the double-blind period, identical appearing capsules are supplied which contain placebo, escitalopram 4 mg, or bupropion extended-release 150 mg. […] All study medication is administered as a single daily dose throughout the study, preferably at the same time each evening starting on the day the medication is dispensed to the patient. Dosing is subsequently be switched to morning, if preferred. […] Patients are instructed to return all unused medication at each study visit. […] Patients are instructed to take two capsules daily as a single dose beginning on the day study medication is dispensed. […] Patients are assigned the lowest randomization number available at the site. Patients are instructed to take two capsules daily as a single dose beginning on the day study medication is dispensed. In accordance with their assigned treatment group, patients receive placebo, 4 mg escitalopram, 150 mg bupropion, or 4 mg escitalopram and 150 mg bupropion per day. […] Patients are instructed to continue taking two capsules daily as a single dose. In accordance with their assigned treatment group, patients receive placebo, 4 mg escitalopram, 150 bupropion, or 4 mg escitalopram and 150 mg bupropion per day. Efficacy: All efficacy analyses are based on the Intent-to-Treat (ITT) Population. […] All efficacy analyses are performed using both the Last Observation Carried Forward (LOCF) and the Observed Cases (OC) approach. In these analyses, the last observed value before a post-baseline missing value are carried forward to impute the missing value. […] For OC analyses, only observed values are used. […] The primary analysis is performed using the LOCF approach. Three primary comparisons between the escitalopram/bupropion combination group relative to each of the three other groups (placebo, escitalopram, or bupropion) are performed using an ANCOVA model with the treatment group and center as factors and the baseline MADRS score as a covariate. […] The analyses are carried out using a similar statistical model as used for the primary efficacy parameter. […]

[3] = test system: patients with major depressive disorder (MDD); assay: Arizona Sexual Experiences Scale (ASEX) in the fixed dose comparison study; format: in vivo, human
Description: The study consists of a one-week single-blind placebo lead-in period followed by an 8 week double-blind treatment period. Approximately 135 patients are randomized to each of four treatment groups (placebo, escitalopram oxalate 4 mg, bupropion hydrochloride 150 mg, or escitalopram oxalate 4 mg/bupropion hydrochloride 150 mg), for a total of […].
A randomized, double-blind, fixed-dose, multicenter, parallel-group study is conducted in outpatients with MDD. Patients who meet eligibility criteria at Screening (Visit 1) enter a one-week, single-blind, lead-in period of placebo treatment. Patients who complete the lead-in period and continue to meet all entry criteria at Baseline (Visit 2) are randomly assigned to 8 weeks of double-blind treatment with either placebo, escitalopram 4 mg, bupropion XL 150 mg, or escitalopram 4 mg/bupropion XL 150 mg combination. Assignment to a treatment group is according to a computer-generated randomization schedule.
The Arizona Sexual Experiences Scale (ASEX) is completed at Visits 2 and 7, or early termination. Different versions are used for males and females. This 5 item patient-rated scale assesses sexual experiences with respect to libido, psychological and physiological arousal, ability to attain orgasm, and satisfaction with orgasm. Each item is scored on a 6 point scale with higher numbers indicating greater sexual dysfunction.

Row | Compound | spontaneous firing of DRN 5-HT neurons [1] [Hz] | CGI % response [2] | HAMD17 % remission [2] | HAMD24 % response [2] | MADRS % remission [2] | MADRS % response [2] | CGI-I: LS mean (LOCF) [2] | CGI-S: LS mean change from baseline to endpoint (LOCF) [2] | HAMA: LS mean change from baseline to endpoint (LOCF) [2] | HAMD17: LS mean change from baseline to endpoint (LOCF) [2] | HAMD24 2° parameter, validated: LS mean change from baseline to endpoint (LOCF) [2] | HAMD cognit disturb: LS mean change from baseline to endpoint (LOCF) [2] | HAMD psychomotor: LS mean change from baseline to endpoint (LOCF) [2] | MADRS 1° parameter, validated: LS mean change from baseline to endpoint (LOCF) [2] | QOL: LS mean change from baseline to endpoint (LOCF) [2] | ASEX Change in total scores (improvement = reduction in score) ([3]; Females) | ASEX Change in total scores (improvement = reduction in score) ([3]; Males)
1 | CC(NC(C)(C)C)C(=O)c1cccc(Cl)c1 (racemic) [bupropion, (±)-1-(3-chlorophenyl)-2-[(1,1-dimethylethyl)amino]-1-propanone] | 1.54 | 46.6% and 46.62% | 29.3% and 29.32% | 42.9% and 42.86% | 37.6% and 37.59% | 43.6% and 43.61% | −0.11 | −0.27 | −1.31 | −0.75 | −1.10 | −0.21 | −0.33 | −1.08 | 1.97 | −1.6571 | −1.4222
2 | CN(C)CCC[C@@]1(c2ccc(F)cc2)OCc2cc(C#N)ccc21 [escitalopram, 1-[3-(dimethyl-amino)propyl]-1-(p-fluorophenyl)-5-phthalancarbonitrile] | 0.35 | 56.5% and 56.49* % | 29.8% and 29.77% | 46.6% and 46.56* % | 35.9% and 35.88% | 47.3% and 47.33* % | 0.33* | −0.32* | −1.91* | −0.75 | −1.15 | −0.29 | −0.16 | −2.51* | 2.25 | −1.0000 | +0.1667
